Results taken from patent publication US6737038B1, “Use of small molecule radioligands to discover inhibitors of amyloid-beta peptide production and for diagnostic imaging” (Bristol-Myers Squibb Company, priority 1998, dated 2004).

Columns and labels:
[1] = test system: HEK293 cells expressing APP 695 wt; experiment: Aβ production in HEK293 cells expressing APP 695 wt, compared with I-7T binding to membranes of the same cell line; type: cell-based
Excerpt: The concentration of Compound (I-7) leading to half-maximal inhibition (IC50) of proteolytic activity leading to Aβ production in HEK293 cells expressing APP 695 wt is similar to the concentration leading to half-maximal inhibition (IC50) of Compound (I-7T) binding to membranes derived from the same cell line. […] Also using a compound of Formula (I), we have discovered a macromolecule containing a binding site of action for compounds of Formula (I) critical to the processing of APP and the production of Aβ.
bind specifically to a binding site on a macromolecule or a complex of macromolecules involved in APP processing to produce reduction of Aβ peptide production. For example, the concentration of Compound (I-7) leading to half-maximal inhibition (IC50) of Aβ production in HEK293 cells expressing APP 695 wt is similar to the concentration leading to half-maximal inhibition (IC50) of Compound (I-7T) binding to membranes derived from the same cell line.

[2] = test system: membrane binding site of Example 7; experiment: Radioligand Competition Binding Assay (RCB Assay)
presenilin 1 = molecular target: T1, presenilin 1 (Homo sapiens, UniProt P49768); experiment: immunoprecipitation of cross-linked polypeptides with antibodies to presenilin 1; type: binding; conditions: THP-1 membranes, Example 43T 30 nM plus competing compound
T1 construct: endogenous in cells; host or cells: THP-1 cell membranes
Method: The membranes were collected by centrifugation. The membranes were extracted with 50 mM Tris, pH 7.5 containing 100 mM KCl, 2 mM EDTA, 2% CHAPS and 1 complete protease inhibitor tablet per 25 ml buffer (COMPLETE™, Boehringer Mannheim; product number 1697 498)) for 1 hour at 4° C. The detergent soluble fraction was recovered by centrifugation (40,000 g, 30 min, 4° C.). The membrane extract was diluted one half with water. 500 ul of the membrane extract were pre-incubated with 10 ul of normal mouse IgG and 50 ul anti-mouse IgG Sepharose (Sigma) for 1 hour at 4° C. The supernatant was recovered by centrifugation. Subsequently, 10 ug of preimmune IgG (Sigma) or 10 ug of a monoclonal antibody to presenilin 1 was added in the presence of 50 ul anti-mouse IgG Sepharose. Examples of commercially available antibodies to presenilin 1 are Chemicon International: rat anti-human Presenilin 1 monoclonal antibody; product number MAB 1563; or Santa Cruz Biotechnology: goat anti Presenilin 1; product number SC-1244; or Santa Cruz Biotechnology: goat anti Presenilin 1; product number SC-1245. […] Radioactivity bound to the Sepharose beads was dissociated by boiling in SDS sample buffer (4×) containing 50 mM dithiothreitol. […]

With “Tritiated (2S,3R) N1-[1,3-Dihydro-1-methyl-2-oxo-5-(phenyl)-2H-1,4-benzodiazepin-3-yl]-2-(2-methylpropyl)-3-(n-propyl)-butanediamide [Example 43T]” as the compound, how does the “IC50 of Aβ production compared with IC50 of Compound (I-7T) binding to membranes from the same cell line” value [1] read?
Its value is “correlation holds”.

What about the “equivalency to Example 7T as radioactive tracer in the RCB Assay” value [2] of the same compound?
Its value is “can be used instead of Example 7T”.

What does the source list for CC(NC(=O)Cc1cc(F)cc(F)c1)C(=O)NC1N=C(c2ccccc2)c2ccccc2N(C)C1=O (stereo not shown) [Example 98, reference compound]?
competition of cross-linking / immunoprecipitation of labeled bands (FIG. 2) (presenilin 1): not in the presence of Example 98; apparent Ki: RCB Assay conducted with Example 7T versus Example 11T [2]: statistically significant correlation

Which “apparent Ki: RCB Assay conducted with Example 7T versus Example 11T” value [2] does the source give for CC(C)C[C@H](CC(N)=O)C(=O)N[C@H]1CCCCN(Cc2cccc(Oc3ccccc3)c2)C1=O [Example 99] here?
Its value is “statistically significant correlation”.

What does the source list for CCC[C@H](C(N)=O)[C@@H](CC(C)C)C(=O)N[C@H]1CCCCN(Cc2cccc(Oc3ccccc3)c2)C1=O [Example 7, (2R,3S) N1-[(3S)-Hexahydro-1-(3-phenoxybenzyl)-2-oxo-1H-azepin-3-yl]-2-(2-methylpropyl)-3-(propyl)-butanediamide]?
IC50 of Aβ production compared with IC50 of Compound (I-7T) binding to membranes from the same cell line [1]: similar; apparent Ki: RCB Assay conducted with Example 7T versus Example 11T [2]: statistically significant correlation

What does the source list for CCC[C@H](C(N)=O)[C@@H](CC(C)C)C(=O)N[C@H]1CCCCN(Cc2cccc(C(=O)c3ccccc3)c2)C1=O [Example 11]?
IC50 in β APPA Assay versus RCB Assay with Example 7T as radiolabeled standard [2]: statistically significant correlation of IC50 values; apparent Ki: RCB Assay conducted with Example 7T versus Example 11T [2]: statistically significant correlation; cross-linking to the membrane binding site ([2]; THP-1 membranes, photolysis at 365 nm): cross-linked to the membrane binding site of Example 7
